Consider 12 compounds from ChEMBL document CHEMBL3991601, “The target landscape of clinical kinase drugs” (Science, 2017).

For test [1], the target named is RAC-gamma serine/threonine-protein kinase (Homo sapiens, UniProt Q9Y243).
Test [2] addresses T1, Cysteine--tRNA ligase, cytoplasmic (Homo sapiens, UniProt P49589).
T1 sequence (P49589 whole entry): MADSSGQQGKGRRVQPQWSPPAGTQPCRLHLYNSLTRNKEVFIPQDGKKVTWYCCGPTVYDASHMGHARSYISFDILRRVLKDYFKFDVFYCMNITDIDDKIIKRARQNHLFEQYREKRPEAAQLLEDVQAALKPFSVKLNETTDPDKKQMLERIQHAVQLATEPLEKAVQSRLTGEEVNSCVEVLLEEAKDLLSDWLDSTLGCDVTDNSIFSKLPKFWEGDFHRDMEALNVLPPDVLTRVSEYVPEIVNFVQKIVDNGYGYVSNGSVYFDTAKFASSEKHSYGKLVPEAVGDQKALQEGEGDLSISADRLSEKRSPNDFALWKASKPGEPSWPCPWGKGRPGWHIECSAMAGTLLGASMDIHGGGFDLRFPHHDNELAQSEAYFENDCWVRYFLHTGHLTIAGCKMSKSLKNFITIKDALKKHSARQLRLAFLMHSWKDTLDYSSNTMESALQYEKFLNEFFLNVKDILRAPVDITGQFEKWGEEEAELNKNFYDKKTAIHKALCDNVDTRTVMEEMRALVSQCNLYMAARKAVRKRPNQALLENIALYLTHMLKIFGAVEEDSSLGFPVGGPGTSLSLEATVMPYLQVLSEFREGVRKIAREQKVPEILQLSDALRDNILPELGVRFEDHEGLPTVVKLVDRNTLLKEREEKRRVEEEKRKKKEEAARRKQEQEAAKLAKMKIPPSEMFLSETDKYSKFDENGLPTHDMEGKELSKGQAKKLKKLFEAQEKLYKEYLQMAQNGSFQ

The target of test [3] is Serine/threonine-protein kinase MRCK alpha (Homo sapiens, UniProt Q5VT25).
Chain of Serine/threonine-protein kinase MRCK alpha (Q5VT25 whole entry): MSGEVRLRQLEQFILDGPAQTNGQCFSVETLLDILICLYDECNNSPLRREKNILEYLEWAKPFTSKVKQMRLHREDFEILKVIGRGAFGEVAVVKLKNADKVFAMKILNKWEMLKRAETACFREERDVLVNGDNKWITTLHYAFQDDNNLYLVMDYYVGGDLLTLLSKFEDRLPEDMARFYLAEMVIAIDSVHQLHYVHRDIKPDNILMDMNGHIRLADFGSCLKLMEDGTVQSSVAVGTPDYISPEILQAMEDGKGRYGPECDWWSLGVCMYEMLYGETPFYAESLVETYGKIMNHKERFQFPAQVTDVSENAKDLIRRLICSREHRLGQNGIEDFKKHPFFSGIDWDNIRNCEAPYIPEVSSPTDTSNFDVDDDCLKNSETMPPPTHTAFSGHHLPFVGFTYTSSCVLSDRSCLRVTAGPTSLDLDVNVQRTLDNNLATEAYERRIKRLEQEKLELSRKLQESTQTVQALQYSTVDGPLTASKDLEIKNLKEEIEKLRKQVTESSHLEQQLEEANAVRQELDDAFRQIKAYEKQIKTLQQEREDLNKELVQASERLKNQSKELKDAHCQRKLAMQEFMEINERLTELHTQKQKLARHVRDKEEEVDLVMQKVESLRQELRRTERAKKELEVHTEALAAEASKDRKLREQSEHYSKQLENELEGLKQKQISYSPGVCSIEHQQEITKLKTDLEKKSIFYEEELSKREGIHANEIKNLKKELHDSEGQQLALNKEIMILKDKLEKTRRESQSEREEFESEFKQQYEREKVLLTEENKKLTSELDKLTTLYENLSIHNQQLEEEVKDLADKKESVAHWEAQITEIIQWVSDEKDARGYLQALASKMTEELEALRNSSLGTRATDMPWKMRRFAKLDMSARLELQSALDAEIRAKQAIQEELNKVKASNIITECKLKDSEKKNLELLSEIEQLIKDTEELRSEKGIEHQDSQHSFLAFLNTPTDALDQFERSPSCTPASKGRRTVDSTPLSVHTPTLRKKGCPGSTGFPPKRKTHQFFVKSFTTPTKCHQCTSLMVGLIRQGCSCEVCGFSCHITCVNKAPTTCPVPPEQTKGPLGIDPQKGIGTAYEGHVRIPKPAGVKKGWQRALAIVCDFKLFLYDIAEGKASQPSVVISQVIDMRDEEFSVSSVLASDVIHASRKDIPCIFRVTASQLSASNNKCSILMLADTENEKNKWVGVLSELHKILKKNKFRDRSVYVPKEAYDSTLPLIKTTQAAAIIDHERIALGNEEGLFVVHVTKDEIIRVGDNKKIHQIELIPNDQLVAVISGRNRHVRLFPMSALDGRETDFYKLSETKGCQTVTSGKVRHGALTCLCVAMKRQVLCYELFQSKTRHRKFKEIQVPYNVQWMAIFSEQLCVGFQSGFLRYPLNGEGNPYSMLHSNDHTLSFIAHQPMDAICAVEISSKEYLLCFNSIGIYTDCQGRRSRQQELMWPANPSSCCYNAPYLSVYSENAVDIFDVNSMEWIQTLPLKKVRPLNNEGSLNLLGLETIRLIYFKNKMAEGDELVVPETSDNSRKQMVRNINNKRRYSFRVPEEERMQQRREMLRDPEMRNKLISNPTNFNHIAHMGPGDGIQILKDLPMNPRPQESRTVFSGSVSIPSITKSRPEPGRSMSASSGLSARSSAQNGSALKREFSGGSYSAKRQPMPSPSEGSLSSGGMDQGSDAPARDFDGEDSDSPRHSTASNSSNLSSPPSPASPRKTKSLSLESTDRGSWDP
The target of test [4] is T2, Dual specificity mitogen-activated protein kinase kinase 6 (Homo sapiens, UniProt P52564).
T2 sequence (P52564 whole entry): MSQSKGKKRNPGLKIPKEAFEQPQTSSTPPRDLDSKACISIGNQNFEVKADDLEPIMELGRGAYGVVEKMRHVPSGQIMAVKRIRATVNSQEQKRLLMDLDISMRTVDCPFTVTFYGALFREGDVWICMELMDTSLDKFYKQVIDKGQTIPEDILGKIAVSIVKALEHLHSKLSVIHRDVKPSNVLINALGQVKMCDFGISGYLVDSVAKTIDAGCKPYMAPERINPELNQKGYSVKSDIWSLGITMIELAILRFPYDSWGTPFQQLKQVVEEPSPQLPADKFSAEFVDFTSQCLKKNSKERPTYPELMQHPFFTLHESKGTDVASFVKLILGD

The target in test [5] is T3, Mitogen-activated protein kinase kinase kinase kinase 3 (Homo sapiens, UniProt Q8IVH8).
T3 sequence (Q8IVH8 whole entry): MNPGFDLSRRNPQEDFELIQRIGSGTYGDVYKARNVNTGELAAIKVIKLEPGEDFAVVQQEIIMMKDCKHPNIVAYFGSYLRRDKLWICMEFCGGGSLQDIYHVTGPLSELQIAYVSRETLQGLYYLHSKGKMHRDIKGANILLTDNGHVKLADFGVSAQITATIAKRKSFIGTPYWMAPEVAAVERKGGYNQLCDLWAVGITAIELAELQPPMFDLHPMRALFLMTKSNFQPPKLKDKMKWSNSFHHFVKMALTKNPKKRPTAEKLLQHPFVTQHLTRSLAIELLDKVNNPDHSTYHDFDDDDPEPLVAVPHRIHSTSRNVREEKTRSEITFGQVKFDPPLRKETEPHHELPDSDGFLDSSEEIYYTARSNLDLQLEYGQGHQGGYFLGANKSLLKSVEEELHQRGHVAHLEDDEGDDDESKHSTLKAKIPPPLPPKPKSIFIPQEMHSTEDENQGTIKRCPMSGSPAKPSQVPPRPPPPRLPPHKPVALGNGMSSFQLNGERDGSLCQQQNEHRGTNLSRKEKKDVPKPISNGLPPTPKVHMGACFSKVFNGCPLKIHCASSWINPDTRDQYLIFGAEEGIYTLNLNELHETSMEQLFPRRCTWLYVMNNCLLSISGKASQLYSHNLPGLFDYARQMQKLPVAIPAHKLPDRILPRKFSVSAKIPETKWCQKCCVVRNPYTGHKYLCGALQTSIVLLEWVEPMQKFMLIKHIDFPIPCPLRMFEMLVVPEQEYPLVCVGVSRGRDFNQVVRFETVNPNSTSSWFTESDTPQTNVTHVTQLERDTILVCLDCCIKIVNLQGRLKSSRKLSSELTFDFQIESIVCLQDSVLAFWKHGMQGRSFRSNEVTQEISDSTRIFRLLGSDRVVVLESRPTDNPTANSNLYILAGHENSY

Test [6] deals with Serine/threonine-protein kinase pim-1 (Homo sapiens, UniProt P11309).
Chain of Serine/threonine-protein kinase pim-1 (P11309 whole entry): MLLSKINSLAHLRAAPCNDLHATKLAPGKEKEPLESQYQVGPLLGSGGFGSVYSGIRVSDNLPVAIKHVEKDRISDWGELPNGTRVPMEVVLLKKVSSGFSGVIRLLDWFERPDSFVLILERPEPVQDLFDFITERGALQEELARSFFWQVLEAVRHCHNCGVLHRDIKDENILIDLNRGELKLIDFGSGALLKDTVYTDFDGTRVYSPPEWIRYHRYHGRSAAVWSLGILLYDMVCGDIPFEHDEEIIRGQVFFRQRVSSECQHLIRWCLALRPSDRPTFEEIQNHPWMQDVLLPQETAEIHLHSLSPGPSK
For test [7], the target named is Receptor-interacting serine/threonine-protein kinase 3 (Homo sapiens, UniProt Q9Y572).
Chain of Receptor-interacting serine/threonine-protein kinase 3 (Q9Y572 whole entry): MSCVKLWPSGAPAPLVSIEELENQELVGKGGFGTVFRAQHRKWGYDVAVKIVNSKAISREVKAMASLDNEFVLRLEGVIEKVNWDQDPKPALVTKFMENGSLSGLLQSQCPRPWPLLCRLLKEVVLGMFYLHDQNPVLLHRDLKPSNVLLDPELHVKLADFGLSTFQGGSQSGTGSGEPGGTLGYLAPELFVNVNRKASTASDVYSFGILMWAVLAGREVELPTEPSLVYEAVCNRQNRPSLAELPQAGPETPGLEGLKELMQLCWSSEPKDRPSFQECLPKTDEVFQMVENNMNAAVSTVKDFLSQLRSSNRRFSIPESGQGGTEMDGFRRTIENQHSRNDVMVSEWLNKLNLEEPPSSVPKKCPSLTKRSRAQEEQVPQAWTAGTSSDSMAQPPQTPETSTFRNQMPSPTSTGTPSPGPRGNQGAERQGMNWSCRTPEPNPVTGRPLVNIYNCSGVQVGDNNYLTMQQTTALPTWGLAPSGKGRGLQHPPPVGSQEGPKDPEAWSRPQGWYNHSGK
The target in test [8] is T4, Serine/threonine-protein kinase ULK3 (Homo sapiens, UniProt Q6PHR2).
T4 sequence (Q6PHR2 whole entry): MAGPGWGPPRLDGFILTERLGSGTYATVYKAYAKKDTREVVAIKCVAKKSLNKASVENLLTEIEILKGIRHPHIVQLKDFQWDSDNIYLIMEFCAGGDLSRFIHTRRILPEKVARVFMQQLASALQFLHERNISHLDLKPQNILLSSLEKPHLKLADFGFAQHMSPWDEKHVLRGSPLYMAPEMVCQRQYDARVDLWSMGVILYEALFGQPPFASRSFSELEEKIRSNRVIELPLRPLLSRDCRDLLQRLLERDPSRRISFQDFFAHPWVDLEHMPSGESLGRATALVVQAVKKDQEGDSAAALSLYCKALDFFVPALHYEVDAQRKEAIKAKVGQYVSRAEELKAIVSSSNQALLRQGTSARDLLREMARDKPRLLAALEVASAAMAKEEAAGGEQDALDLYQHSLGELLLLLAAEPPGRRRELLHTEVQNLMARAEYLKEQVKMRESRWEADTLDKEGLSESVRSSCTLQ

Calls of active or inactive are those of the source. A value given as a limit tells only on which side of the number the result lay.
Further: in the data inactive means no Kd found up to 30 µM.

Chain of RAC-gamma serine/threonine-protein kinase (Q9Y243 whole entry): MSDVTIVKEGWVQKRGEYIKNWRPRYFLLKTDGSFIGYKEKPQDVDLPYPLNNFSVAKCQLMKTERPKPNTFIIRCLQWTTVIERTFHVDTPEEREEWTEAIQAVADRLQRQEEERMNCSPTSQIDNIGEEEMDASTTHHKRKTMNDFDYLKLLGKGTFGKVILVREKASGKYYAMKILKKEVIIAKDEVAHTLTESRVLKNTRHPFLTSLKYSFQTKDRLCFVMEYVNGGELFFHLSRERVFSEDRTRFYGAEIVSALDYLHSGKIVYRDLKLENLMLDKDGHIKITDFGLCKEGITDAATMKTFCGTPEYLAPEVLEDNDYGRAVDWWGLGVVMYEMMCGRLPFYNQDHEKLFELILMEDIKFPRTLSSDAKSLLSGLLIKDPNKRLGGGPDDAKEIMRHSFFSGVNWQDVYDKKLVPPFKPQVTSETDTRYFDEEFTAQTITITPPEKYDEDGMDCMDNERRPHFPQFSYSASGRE

For `CNC(=O)c1nn(C)c2c1C(C)(C)Cc1cnc(Nc3ccc(N4CCN(C)CC4)cc3)nc1-2` [MILCICLIB], the Kd in test [1] was > 30 µM (inactive); in test [2], > 30 µM (inactive); in test [3], > 30 µM (inactive); in test [4] it was > 30 µM (inactive); in test [5], 2.06 µM (active); in test [6], > 30 µM (inactive). Besides, the Kd in test [7] and in test [8] was > 30 µM (inactive) each time.

For `CN(C[C@@H]1COCCO1)S(=O)(=O)Nc1ccc2ccc3ncc(-c4cnn(C)c4)cc3c(=O)c2c1` [MK-2461], the Kd in test [1], in test [2], in test [3], in test [4], in test [5] and in test [6] was > 30 µM (inactive) in each case. The Kd in test [7] and in test [8] was > 30 µM (inactive) throughout.

For `Cn1cc(-c2cnc3ccc4ccc(CS(=O)(=O)NCc5ccccn5)cc4c(=O)c3c2)cn1` [MK-8033], the Kd in test [1], in test [2], in test [3], in test [4], in test [5] and in test [6] was > 30 µM (inactive) in each case. Further, the Kd in test [7] and in test [8] was > 30 µM (inactive) each time.

`FC(F)(F)c1ccc(/C=C/c2nc(COc3ccc(CCCCn4ccnn4)cc3)co2)cc1` [MUBRITINIB]: the Kd in test [1], in test [2], in test [3], in test [4], in test [5] and in test [6] was > 30 µM (inactive) each time. The Kd in test [7] and in test [8] was > 30 µM (inactive) each time.

For `CCOc1cc2ncc(C#N)c(Nc3ccc(F)c(Cl)c3)c2cc1NC(=O)/C=C/CN(C)C` [PELITINIB], the Kd in test [1] is > 30 µM (inactive); in test [2], > 30 µM (inactive); in test [3], > 30 µM (inactive); in test [4], > 30 µM (inactive); in test [5], 0.189 µM (active); in test [6], > 30 µM (inactive). Besides, the Kd in test [7] and in test [8] was > 30 µM (inactive) each time.

As for `CCCCCCCCCCCCCCCCCCOP(=O)([O-])OC1CC[N+](C)(C)CC1` [PERIFOSINE], the Kd in test [1], in test [2], in test [3], in test [4], in test [5] and in test [6] was > 30 µM (inactive) throughout. In addition, the Kd in test [7] and in test [8] was > 30 µM (inactive) throughout.

For `Cc1nc(Nc2n[nH]c3c2CN(C(=O)N[C@H](CN(C)C)c2ccccc2)C3(C)C)c2sccc2n1` [PF-03758309], the Kd in test [1] was > 30 µM (inactive); in test [2] it was > 30 µM (inactive); in test [3] it was > 30 µM (inactive); in test [4] it was > 30 µM (inactive); in test [5] it was 2.19 µM (active); in test [6], > 30 µM (inactive). The Kd in test [7] is > 30 µM (inactive); in test [8] it was 0.626 µM (active).

For `Cc1cnc(NC(=O)Nc2cc(Br)c(C)cc2OC[C@@H]2CNCCO2)cn1` [RABUSERTIB], the Kd in test [1], in test [2], in test [3], in test [4], in test [5] and in test [6] was > 30 µM (inactive) in each case. Further, the Kd in test [7] and in test [8] was > 30 µM (inactive) in each case.

Consider `N#CC1(c2ccc(NC(=O)c3cccnc3NCc3ccncc3)cc2)CCCC1` [RIVOCERANIB], for which the Kd in test [1], in test [2], in test [3], in test [4], in test [5] and in test [6] was > 30 µM (inactive) in each case. Further, the Kd was 2.37 µM (active) in test [7] and > 30 µM (inactive) in test [8].

As for `O=c1[nH]ccc2cc(OC3CCNCC3)ccc12` [SAR-407899 FREE BASE], the Kd was > 30 µM (inactive) in test [1]; > 30 µM (inactive) in test [2]; 0.01 µM (active) in test [3]; > 30 µM (inactive) in test [4]; > 30 µM (inactive) in test [5]; > 30 µM (inactive) in test [6]. Moreover, the Kd in test [7] and in test [8] was > 30 µM (inactive) throughout.

Regarding `CO[C@H]1C[C@@H]2CC[C@@H](C)[C@@](O)(O2)C(=O)C(=O)N2CCCC[C@H]2C(=O)O[C@H]([C@H](C)C[C@@H]2CC[C@@H](O)[C@H](OC)C2)CC(=O)[C@H](C)/C=C(\C)[C@@H](O)[C@@H](OC)C(=O)[C@H](C)C[C@H](C)/C=C/C=C/C=C/1C` [SIROLIMUS], the Kd in test [1], in test [2], in test [3], in test [4], in test [5] and in test [6] was > 30 µM (inactive) throughout. Moreover, the Kd in test [7] and in test [8] was > 30 µM (inactive) throughout.

For `CO[C@H]1C[C@@H]2CC[C@@H](C)[C@@](O)(O2)C(=O)C(=O)N2CCCC[C@H]2C(=O)O[C@H]([C@H](C)C[C@@H]2CC[C@@H](OC(=O)C(C)(CO)CO)[C@H](OC)C2)CC(=O)[C@H](C)/C=C(\C)[C@@H](O)[C@@H](OC)C(=O)[C@H](C)C[C@H](C)/C=C/C=C/C=C/1C` [TEMSIROLIMUS], the Kd in test [1], in test [2], in test [3], in test [4], in test [5] and in test [6] was > 30 µM (inactive) in each case. The Kd in test [7] and in test [8] was > 30 µM (inactive) in each case.
